One assay has as its target T1, BKCa channel (mSlo) (Mus musculus, UniProt Q08460).
T1 construct: expressed in transfected cells
The assay is described as follows: Whole cell patch clamp of HEK293 cells stably transfected with mSlo. The class given is cell-based, murine. The procedure: FIGS. 4A and 4B show representative current traces from whole cell patches with 5 mM EGTA in patch pipette. […] Voltage steps are shown at the right of each tracing; note the different maximum voltage steps +200 mV (upper) vs. +120 mV (lower). […] FIG. 4C G-V curves were constructed for indicated conditions utilizing tail analysis (Xia, et al., Multiple regulatory sites in large-conductance calcium-activated potassium channels. Nature, 2002. 418(6900):880-4). Solid lines were fitted with Boltzmann function. […] FIGS. 4D and 4E show experiments studying stable mslo HEK293 cells in whole cell configuration with a pipette solution containing 5 mM EGTA (˜0 free Ca^2+).
Current in the diary plot in FIG. 5B represents maximal current in ramp protocol at +70 mV. Holding potential of ramp was −20 mV, with ramp from −30 mV to +180 mV over 500 ms. The G-V curve in FIG. 5C was generated from the tail analysis as described in FIG. 4.
Current was monitored with a ramp protocol; holding potential −60 mV, with ramp from −80 mV to +150 mV over 500 ms. […] Analysis was performed using tail analysis with normalization as previously described (Xia, et al., Multiple regulatory sites in large-conductance calcium-activated potassium channels. Nature, 2002. 418(6900):880-4). […] Identification of the BKCa channel was determined by conductance and inhibition by iberiotoxin and TEA. […] Murine femoral arterial rings were isolated and placed in a wire myograph. […] The figures shown are representative of 4 similar experiments. Error bars are standard error of the mean (SEM). Asterisk (*) indicates p<0.001.

Assay [1] has as its target T2, BK currents in tracheal smooth muscle (Mus musculus, UniProt Q08460).
T2 construct: murine tracheal smooth muscle cells were acutely isolated and whole cell patch clamped; endogenous in cells; host or cells: acutely isolated murine tracheal smooth muscle cells
The experiment in a line: Whole cell patch clamp of acutely isolated tracheal smooth muscle cells. Particulars: rottlerin (1 (unit uncertain)), FIG. 11A. The arrangement: unit of the concentration uncertain. Format: cell-based, murine. An excerpt: (§1) In this experiment, murine tracheal smooth muscle cells were acutely isolated and whole cell patch clamped as previously described (Zakharov, S. et al., (2005) J Biol Chem 280, 30882-30887).
Murine tracheal smooth muscle cells were isolated using the following protocol. Trachea were removed, cut longitudinally, the epithelium removed (brushing with sterile cotton bud) and the cartilage removed by cutting. The isolated trachea were dissected in culture medium and cut into several pieces (1-2 mm^2). After addition of 0.5 mg/ml papain (Roche, Nutley, N.J.) and 1 mg/ml dithiothreitol, the cells were dissociated at 37° C. for 20 minutes, gently shaking, followed by the addition of 0.1 mg/ml liberase enzyme 2 (Roche, Nutley, N.J.) for 30 minutes at 37° C. (5% CO2). The suspension was then pipetted gently several times to disburse cells, the cell suspension strained via a nylon cell strainer, and the suspension was gently triturated to disburse single cells. The cell suspension was then centrifuged at 700×g for 5 minutes and the pellet resuspended in 500 μl Krebs solution. The cells were plated onto laminin-coated tissue culture dishes. BK currents were recorded using whole-cell and outside-out macropatches.
In general terms: Patch clamp records ionic current or voltage across a cell membrane.

In assay [2] the test system is membrane potential of tracheal smooth muscle cells. The assay is described as follows: Membrane potential measurement in tracheal smooth muscle cells. The class given is cell-based, mice. Here is the method:
as §1
The membrane potential was recorded using perforated patch clamp technique.

The next assay addresses PKCδ (Homo sapiens, UniProt Q05655). Particulars: cited from earlier work.
Assay [3] deals with 3-phosphoinositide-dependent protein kinase-1 (PDK-1) (Homo sapiens, UniProt O15530). The conditions noted are these: 20 μM; cited from earlier work.
Sequence of 3-phosphoinositide-dependent protein kinase-1 (PDK-1) (O15530 whole entry, species assumed): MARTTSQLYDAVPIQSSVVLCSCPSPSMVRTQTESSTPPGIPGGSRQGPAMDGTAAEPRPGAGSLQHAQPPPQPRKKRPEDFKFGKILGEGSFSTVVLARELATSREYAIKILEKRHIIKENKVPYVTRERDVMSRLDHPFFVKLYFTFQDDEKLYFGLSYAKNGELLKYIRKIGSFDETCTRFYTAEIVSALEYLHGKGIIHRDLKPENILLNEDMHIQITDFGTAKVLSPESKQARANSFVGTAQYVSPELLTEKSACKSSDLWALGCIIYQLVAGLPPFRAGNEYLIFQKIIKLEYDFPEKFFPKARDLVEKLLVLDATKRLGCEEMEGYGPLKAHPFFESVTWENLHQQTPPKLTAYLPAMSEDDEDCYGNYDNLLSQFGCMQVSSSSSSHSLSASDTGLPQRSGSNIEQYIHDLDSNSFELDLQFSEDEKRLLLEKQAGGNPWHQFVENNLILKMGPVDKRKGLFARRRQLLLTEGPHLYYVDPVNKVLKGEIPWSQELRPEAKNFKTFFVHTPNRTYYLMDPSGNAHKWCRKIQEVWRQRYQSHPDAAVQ
Assay [4] addresses glycogen synthase kinase 3β (Homo sapiens, UniProt P49841). Particulars: 20 μM; cited from earlier work.
The next assay deals with 3T3-L1 adipocytes. The conditions noted are these: read-out: IC50 of insulin-induced glucose uptake; cited from earlier work.
For another assay, the system named is OVA-challenged animals. The conditions noted are these: in vivo; cited from earlier work.
Assay [5] deals with Jurkat T cells and purified human CD4+ T cells. Particulars: cited from earlier work.

This is an account of results in patent publication US20120184517A1, “TREATMENT OF DISEASES WITH ALTERED SMOOTH MUSCLE CONTRACTILITY” (priority 2009, published 2012).

Entries after “also recorded” stand apart in the source; their conditions may differ.

T1 sequence (Q08460 whole entry): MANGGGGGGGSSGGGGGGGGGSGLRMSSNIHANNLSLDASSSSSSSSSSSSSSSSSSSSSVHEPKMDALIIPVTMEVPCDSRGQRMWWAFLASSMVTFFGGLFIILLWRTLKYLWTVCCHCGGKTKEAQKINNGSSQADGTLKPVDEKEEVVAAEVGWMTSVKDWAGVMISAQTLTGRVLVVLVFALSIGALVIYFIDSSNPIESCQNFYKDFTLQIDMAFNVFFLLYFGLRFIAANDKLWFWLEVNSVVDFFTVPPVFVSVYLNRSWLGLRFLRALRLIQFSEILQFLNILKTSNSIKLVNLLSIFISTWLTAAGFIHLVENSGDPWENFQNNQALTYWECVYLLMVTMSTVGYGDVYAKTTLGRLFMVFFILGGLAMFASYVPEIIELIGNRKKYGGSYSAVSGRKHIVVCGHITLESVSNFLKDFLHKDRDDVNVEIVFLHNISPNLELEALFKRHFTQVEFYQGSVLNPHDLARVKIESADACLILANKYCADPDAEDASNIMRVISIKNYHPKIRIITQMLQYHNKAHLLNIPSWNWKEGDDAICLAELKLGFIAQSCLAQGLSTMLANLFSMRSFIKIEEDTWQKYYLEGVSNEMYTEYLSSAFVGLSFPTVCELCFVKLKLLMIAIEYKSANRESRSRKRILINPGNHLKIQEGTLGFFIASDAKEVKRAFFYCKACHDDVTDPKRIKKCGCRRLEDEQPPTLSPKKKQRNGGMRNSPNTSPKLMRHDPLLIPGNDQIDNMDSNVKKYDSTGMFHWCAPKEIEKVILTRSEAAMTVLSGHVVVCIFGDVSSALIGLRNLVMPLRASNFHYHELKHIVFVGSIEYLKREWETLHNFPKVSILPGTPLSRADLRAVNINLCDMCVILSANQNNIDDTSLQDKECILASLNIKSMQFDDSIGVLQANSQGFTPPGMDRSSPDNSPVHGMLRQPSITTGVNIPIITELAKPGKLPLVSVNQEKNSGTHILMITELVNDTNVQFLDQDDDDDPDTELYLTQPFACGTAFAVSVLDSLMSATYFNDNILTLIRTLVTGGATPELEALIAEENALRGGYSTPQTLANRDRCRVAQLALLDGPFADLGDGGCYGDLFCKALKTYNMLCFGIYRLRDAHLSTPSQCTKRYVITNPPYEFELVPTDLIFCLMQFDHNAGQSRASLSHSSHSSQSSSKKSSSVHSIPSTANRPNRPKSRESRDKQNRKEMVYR
Sequence of glycogen synthase kinase 3β (P49841 whole entry): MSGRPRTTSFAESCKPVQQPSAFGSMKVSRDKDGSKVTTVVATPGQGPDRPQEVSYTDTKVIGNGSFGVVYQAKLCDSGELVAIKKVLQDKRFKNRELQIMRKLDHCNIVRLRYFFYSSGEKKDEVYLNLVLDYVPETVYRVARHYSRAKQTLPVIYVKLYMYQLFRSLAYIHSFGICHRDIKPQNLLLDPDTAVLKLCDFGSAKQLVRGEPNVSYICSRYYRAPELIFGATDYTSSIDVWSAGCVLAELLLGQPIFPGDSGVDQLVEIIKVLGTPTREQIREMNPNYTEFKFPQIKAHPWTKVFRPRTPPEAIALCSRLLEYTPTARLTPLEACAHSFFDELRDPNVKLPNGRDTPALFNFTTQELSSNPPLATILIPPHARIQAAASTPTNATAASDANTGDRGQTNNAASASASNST
Sequence of PKCδ (Q05655 whole entry): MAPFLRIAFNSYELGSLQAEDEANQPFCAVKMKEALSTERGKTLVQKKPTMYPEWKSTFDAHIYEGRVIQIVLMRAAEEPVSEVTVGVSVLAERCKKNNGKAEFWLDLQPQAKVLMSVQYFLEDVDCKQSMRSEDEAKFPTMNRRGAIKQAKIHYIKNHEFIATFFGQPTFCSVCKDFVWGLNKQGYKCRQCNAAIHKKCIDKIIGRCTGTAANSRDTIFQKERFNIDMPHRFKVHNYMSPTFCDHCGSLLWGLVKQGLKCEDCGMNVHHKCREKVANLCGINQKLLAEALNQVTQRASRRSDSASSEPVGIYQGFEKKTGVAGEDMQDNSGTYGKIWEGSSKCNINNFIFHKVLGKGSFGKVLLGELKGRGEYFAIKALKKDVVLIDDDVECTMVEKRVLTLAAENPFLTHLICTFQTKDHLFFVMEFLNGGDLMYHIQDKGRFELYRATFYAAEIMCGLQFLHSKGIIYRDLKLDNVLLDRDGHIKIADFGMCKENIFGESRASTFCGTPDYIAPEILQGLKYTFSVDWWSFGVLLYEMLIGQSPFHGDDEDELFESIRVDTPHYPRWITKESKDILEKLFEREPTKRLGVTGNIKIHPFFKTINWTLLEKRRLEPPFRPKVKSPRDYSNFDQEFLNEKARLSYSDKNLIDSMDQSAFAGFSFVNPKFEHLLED
T2 sequence (Q08460 whole entry): as the sequence (Q08460 whole entry) above
T2 sequence (Q8CAE3 whole entry partner): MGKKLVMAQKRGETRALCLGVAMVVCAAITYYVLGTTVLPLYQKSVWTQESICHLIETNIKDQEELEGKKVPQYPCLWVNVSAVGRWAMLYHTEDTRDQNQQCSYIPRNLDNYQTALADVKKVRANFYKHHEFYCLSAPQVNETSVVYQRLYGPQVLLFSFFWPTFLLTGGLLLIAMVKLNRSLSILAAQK

As usually defined, the IC50 is the concentration that gives 50% inhibition. As a reminder, the inhibition is the drop in the measured response relative to a control, in per cent. Regarding `CC(=O)c1c(O)c(C)c(O)c(Cc2c(O)c3c(c(C(=O)/C=C/c4ccccc4)c2O)OC(C)(C)C=C3)c1O` [rottlerin, 5,7-dihydroxy-2,2-dimethyl-6-(2,4,6-trihydroxy-3-methyl-5-acetylbenzyl)-8-cinnamoyl-I,2-chromene], the “tail currents (deactivation)” value on BKCa channel (mSlo) (after exposure to rottlerin) is listed as “markedly prolonged”. In addition, the “concentration at which channel activity was dramatically increased” value at BKCa channel (mSlo) (extracellular, non-Ca2+ dependent, reversible) was below 100 nM. Moreover, on BKCa channel (mSlo) (rottlerin 0.5 μM added after NS-1619, 0 Ca2+), the “current after NS-1619 administration” value was “incrementally increased current”. In addition, the “effect of intracellular dialysis on channel activity” value on BKCa channel (mSlo) (up to 20 μM in patch pipette, 25 minutes) is recorded as “only a relatively small effect; also recorded: minimal effect”. The BK currents result in assay [1] is reported as “significantly activated”. The membrane potential entry in assay [2] (after rottlerin application (1 μM), FIGS. 11B and 11D) is “significant hyperpolarization”; in assay [2] (perforated patch clamp, rottlerin 2 μM, FIG. 15), “significant hyperpolarization”. Also, the figures for the IC50 on PKCδ and in the assay with 3T3-L1 adipocytes were 3 to 6 µM and 10 µM, respectively. In addition, the inhibition is 64% in assay [3] and 87% in assay [4]. The “histamine in BAL fluid” value in the assay with OVA-challenged animals is recorded as “inhibits an increase of histamine”. The “PMA-induced phosphorylation of Erk-1 and Erk-2” value in assay [5] is reported as “blocked”.
